Biological target: IGF1R Ba/F3 (Homo sapiens, UniProt P08069)
Experiment: Ba/F3 Cell Viability Inhibition Assay (Tel-TK transformed Ba/F3 lines)
Assay type: cell-based, murine
Parameters: most likely, as the lines are called Tel-TK) or BCR (P11274)
Conditions: Tel-TK (IGF1R) transformed Ba/F3 cells, 48 hours incubation, cell viability (Britelite luminescence)
Source text: Ba/F3 is a murine IL-3-dependent pro-B lymphoma cell line. Parental Ba/F3 cells are used to generate a panel of sublines whose proliferation and survival is rendered IL-3-independent by stable transduction with individual tyrosine kinases activated by fusion with the amino-terminal portion of TEL (amino acid 1-375) or BCR. In order to generate Ba/F3 cell lines transformed by Tel-Tyrosine Kinase (TK) fusions, parental Ba/F3 cells are infected with a retrovirus harboring each TEL-fusion kinase and subjected to puromycin selection and IL-3 withdrawal to obtain IL-3-independent, transformed Ba/F3 cells.
Each transformed Ba/F3 cells are cultured in RPMI-1640 media (Gibco Cat #11875093, Carlsbad, Calif.) supplemented with 10% FBS (Hyclone Cat #SV30014.03, Logan, Utah), 4.5 g/L glucose (Sigma #G5400, St.Louis, Mo.), 1.5 g/L sodium bicarbonate (Biowhittaker #17-613E, Walkersville, Md.) and Pen/Strep (Gibco #10378-016, Carlsbad, Calif.). Cells are splitted twice weekly.
The potency of test compounds against various Tel-TK transformed Ba/F3 lines is determined as follows. Exponentially growing BaF3 Tel-TK cells are diluted in fresh medium to 75,000 cells/mL and seeded into 384-well plates (3750 cells/well) at 50 μL/well using a gill liquid dispenser (BioTek, Winooski, Vt., USA). […] 25 μL Britelite (Perkin Elmer) is added and luminescence is quantified using Analyst GT (Molecular Devices). […]

IGF1R Ba/F3, sequence (P08069 999-1274 limits assumed): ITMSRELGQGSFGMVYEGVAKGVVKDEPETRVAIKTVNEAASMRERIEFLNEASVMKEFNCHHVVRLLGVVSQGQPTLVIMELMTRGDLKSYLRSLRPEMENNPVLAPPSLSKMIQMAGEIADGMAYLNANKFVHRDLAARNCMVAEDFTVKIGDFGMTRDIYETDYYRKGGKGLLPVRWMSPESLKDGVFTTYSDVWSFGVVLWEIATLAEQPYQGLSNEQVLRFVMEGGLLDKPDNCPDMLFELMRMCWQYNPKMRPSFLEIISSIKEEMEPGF

## Cc1cc(Nc2nc(Nc3cc(C)c(-c4cccnc4)cc3C)ncc2Cl)n[nH]1 [Compound 13]
  IC50: 29 nM

— US8445505B2 (IRM LLC, priority 2008, dated 2013)
